SMILES strings stand for the structures.

These results are taken from US10689362B2, “Quinoxaline compounds as type III receptor tyrosine kinase inhibitors” (Development Center for Biotechnology, priority 2016, dated 2020).

In test [1] the test system is CSF-1-dependent M-NFS-60 mouse myeloid leukemia cell. As to the kind of experiment: M-NFS-60 cell proliferation assay (CellTiter-96). The class given is cell-based. Conditions: Cytotoxicity, M-NFS-60 cells, 72 hours. The method, boiled down:
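CSF-1-dependent M-NFS-60 cells seeded at 2000 cells/well, settled overnight at 37 °C, 5% CO2, then exposed to increasing compound concentrations for 72 h. Viability read by CellTiter 96 AQueous One reagent (4 h) at 490 nm absorbance.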

In test [2] the target is CSF-1R kinase (Homo sapiens (Human), UniProt P07333). As to the kind of experiment: CSF-1R kinase assay (AlphaScreen). The class given is biochemical. As for the experimental part: Inhibition of CSF-1R kinase activity by a test compound disclosed herein was estimated by AlphaScreen (PerkinElmer). […] Reactions were incubated at 30° C. for 45 min and stopped by adding 5 μL of 50 mM EDTA. Analysis of resulting product using an AlphaScreen kit, and counted with Enspire Alpha (PerkinElmer). […] The IC50 values of quinoxaline compounds of this invention against CSF-1R kinase were determined using the GraphPad Prism 5 software.
Sequence of CSF-1R kinase (P07333 20-972): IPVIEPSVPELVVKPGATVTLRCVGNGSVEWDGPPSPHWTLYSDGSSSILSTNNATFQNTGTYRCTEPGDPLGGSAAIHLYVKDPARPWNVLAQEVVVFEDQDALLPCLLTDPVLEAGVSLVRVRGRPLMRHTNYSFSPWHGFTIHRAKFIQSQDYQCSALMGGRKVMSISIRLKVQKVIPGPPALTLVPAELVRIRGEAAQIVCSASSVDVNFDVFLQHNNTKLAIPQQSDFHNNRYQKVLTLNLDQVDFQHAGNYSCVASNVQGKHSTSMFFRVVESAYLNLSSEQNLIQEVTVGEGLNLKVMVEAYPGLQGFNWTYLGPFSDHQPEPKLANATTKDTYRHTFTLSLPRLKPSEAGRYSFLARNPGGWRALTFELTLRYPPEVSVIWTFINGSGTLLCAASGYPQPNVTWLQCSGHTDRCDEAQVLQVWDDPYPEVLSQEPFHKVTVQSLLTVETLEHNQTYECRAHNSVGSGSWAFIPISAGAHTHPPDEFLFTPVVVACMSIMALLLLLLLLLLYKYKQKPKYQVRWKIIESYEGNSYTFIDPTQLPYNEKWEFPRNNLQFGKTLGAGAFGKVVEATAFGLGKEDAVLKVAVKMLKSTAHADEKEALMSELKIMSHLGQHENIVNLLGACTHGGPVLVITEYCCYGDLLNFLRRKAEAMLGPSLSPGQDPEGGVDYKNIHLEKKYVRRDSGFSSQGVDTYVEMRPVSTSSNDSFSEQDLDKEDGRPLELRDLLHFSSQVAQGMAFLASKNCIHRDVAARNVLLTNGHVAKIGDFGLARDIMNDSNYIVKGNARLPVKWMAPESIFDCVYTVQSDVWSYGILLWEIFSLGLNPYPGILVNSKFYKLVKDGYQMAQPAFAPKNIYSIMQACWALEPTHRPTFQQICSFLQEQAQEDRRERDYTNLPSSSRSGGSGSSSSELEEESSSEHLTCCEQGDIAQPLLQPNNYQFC

Test [3] concerns MV4-11 human acute myeloid leukemia cell with FLT3-ITD mutation. Nature of the test: MV4-11 cell proliferation assay (CellTiter-96). Format: cell-based. The conditions noted are these: Cytotoxicity, MV4-11 cells, 72 hours. In short, it runs like this:
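MV4-11 cells (FLT3-ITD, FLT3-dependent growth) seeded at 6500 cells/well, incubated overnight at 37° C., 5% CO2, then exposed to increasing compound concentrations for 72 hours. Viability read by CellTiter96 AQueous One reagent (4 hours), absorbance at 490 nm.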

Test [4] has as its target c-KIT kinase (Homo sapiens (Human), UniProt P10721). Nature of the test: c-KIT kinase assay (radiometric). Format: biochemical. The method, boiled down: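 Recombinant c-Kit (20 ng) with 2 μg Poly-(Glu4:Tyr1) in MOPS pH 7.0 buffer with MgCl2/MnCl2, 10 μM ATP plus [^33P]-ATP, 4% DMSO final, 60 min at 30° C. Stopped with phosphoric acid, filter-captured and scintillation counted; IC50 from curve fit.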

The subject of test [5] is Kasumi-1 human acute myeloid leukemia cell with c-KIT N822K activating mutation. As to the kind of experiment: Kasumi-1 cell proliferation assay (CellTiter-96). The class given is cell-based. The conditions noted are these: Cytotoxicity, Kasumi-1 cells, 72 hours. The method, boiled down: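 Kasumi-1 cells, seeded at 64000 cells/well and incubated overnight at 37 °C, were exposed to increasing compound concentrations for 72 h. Viability was measured by CellTiter96 AQueous One reagent (4 h) and absorbance at 490 nm.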

The target in test [6] is FLT3 kinase (Homo sapiens (Human), UniProt P36888). Nature of the test: FLT3 kinase assay (radiometric). Format: biochemical. The method, boiled down:
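Recombinant FLT3 (5 ng) phosphorylating poly(Glu4:Tyr1) (2 μg) with 10 μM ATP plus [^33P]-ATP in MOPS pH 7.0 buffer, 4% DMSO final, 60 min at 30° C. Reaction stopped with phosphoric acid, filter-captured and scintillation-counted; IC50 derived from dose-response.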

The subject of test [7] is osteoclast precursors (osteoclast differentiation). Nature of the test: Osteoclast tartrate-resistant acid phosphatase assay. Format: cell-based. Conditions: 168 h, at 1 μM treatment, 7 days, RANKL and M-CSF, read-out: inhibition activity against osteoclast differentiation. As for the experimental part:
A serial dilution of test compound was dispensed into a 96-well black clear bottom plate. Compound was diluted by the addition of DMEM media supplemented with 10% characterized fetal bovine serum. Diluted compound was transferred to a 96-well black clear bottom plate. Three thousand osteoclast precursors (Lonza, Walkersville, Md.) were added per well in growth medium containing Receptor Activator of Nuclear Factor Kappa-beta ligand (RANKL) and M-CSF. […] At the end of the incubation period, 50 μL of supernatant from each well was transferred to a clear 96-well plate. Tartrate-resistant acid phosphatase activity in the supernatant samples was determined using an acid phosphatase assay kit (Sigma, St. Louis, Mo.). Absorbance was measured at 550 nm using a plate reader. […] The Inhibition activity against osteoclast differentiation for each compound at 1 μM treatment in duplicate was measured.

Test [8] relates to THP-1 human acute monocytic leukemia cell harboring NRAS G12D mutation. Nature of the test: THP-1 cell proliferation assay (counter screen, CellTiter-96). The class given is cell-based. Conditions: Cytotoxicity, THP-1 cells (counter screen), 72 hours. The method, boiled down:
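THP-1 cells, RTK-independent owing to NRAS G12D, seeded at 5000/well, incubated overnight at 37 °C/5% CO2, then exposed to increasing compound concentrations for 72 h. CellTiter96 AQueous One reagent added for 4 h; viability from absorbance at 490 nm.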

For test [9], the target named is PDGFRβ kinase (Homo sapiens (Human), UniProt P09619). As to the kind of experiment: PDGFRβ kinase assay (radiometric). Format: biochemical. The method, boiled down: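 Radiometric assay: recombinant PDGFRβ with poly(Glu4:Tyr1) in MOPS pH 7.0 buffer containing Mg2+/Mn2+, 10 μM ATP plus [33P]-ATP, and compound at 4% DMSO final. Incubated 60 min at 30° C, stopped with phosphoric acid, filter-captured and scintillation-counted. IC50 from curve fitting.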
Sequence of PDGFRβ kinase (P09619 33-1106): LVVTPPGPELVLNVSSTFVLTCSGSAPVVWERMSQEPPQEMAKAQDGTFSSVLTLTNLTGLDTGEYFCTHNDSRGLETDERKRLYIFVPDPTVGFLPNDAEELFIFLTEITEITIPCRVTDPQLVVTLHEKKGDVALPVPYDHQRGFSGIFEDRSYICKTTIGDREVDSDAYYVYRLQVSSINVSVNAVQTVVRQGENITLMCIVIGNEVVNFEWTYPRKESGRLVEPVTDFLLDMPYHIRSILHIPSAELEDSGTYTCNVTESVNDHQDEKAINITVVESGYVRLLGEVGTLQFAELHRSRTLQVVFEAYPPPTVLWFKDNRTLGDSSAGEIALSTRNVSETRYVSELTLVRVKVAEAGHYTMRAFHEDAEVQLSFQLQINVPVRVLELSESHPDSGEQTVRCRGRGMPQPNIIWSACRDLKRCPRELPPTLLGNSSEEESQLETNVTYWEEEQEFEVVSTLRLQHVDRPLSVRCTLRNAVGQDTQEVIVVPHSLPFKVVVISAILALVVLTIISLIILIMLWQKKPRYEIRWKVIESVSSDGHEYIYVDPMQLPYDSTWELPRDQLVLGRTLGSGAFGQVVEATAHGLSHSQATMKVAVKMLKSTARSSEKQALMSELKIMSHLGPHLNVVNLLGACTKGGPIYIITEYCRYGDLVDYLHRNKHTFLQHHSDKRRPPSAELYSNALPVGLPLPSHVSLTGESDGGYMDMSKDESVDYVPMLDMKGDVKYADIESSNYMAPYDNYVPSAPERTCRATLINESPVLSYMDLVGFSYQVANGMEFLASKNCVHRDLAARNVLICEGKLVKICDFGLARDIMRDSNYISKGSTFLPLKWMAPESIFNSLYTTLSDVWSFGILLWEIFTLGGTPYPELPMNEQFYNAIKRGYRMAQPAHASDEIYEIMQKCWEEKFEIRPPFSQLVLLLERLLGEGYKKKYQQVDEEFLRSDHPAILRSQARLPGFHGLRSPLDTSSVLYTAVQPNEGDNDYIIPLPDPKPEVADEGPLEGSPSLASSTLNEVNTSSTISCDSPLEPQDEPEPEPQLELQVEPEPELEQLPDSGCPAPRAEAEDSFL

Sequence of c-KIT kinase (P10721 26-976): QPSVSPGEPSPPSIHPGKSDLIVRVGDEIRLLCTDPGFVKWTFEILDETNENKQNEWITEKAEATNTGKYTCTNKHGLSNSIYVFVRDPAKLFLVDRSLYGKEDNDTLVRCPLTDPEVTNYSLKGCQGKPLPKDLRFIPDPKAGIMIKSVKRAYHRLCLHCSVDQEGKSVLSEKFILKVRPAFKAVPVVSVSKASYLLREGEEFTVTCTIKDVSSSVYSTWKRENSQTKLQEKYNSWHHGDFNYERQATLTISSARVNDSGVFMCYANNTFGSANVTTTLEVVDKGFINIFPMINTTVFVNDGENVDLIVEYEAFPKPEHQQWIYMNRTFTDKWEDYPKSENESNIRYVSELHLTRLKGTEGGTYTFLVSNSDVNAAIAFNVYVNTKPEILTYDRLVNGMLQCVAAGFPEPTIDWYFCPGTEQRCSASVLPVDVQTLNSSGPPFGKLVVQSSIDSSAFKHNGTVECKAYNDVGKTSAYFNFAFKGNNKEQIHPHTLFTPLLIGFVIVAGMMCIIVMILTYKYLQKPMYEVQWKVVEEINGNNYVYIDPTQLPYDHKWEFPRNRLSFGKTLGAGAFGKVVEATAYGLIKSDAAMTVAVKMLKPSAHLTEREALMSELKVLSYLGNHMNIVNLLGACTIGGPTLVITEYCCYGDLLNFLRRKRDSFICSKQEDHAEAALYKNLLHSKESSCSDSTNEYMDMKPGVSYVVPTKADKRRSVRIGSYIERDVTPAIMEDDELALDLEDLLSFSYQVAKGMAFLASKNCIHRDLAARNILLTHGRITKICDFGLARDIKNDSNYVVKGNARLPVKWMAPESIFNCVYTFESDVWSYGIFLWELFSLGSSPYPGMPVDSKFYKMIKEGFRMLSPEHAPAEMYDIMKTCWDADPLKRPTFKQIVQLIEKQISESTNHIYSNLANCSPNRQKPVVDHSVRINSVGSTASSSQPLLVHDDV
Sequence of FLT3 kinase (P36888 27-993): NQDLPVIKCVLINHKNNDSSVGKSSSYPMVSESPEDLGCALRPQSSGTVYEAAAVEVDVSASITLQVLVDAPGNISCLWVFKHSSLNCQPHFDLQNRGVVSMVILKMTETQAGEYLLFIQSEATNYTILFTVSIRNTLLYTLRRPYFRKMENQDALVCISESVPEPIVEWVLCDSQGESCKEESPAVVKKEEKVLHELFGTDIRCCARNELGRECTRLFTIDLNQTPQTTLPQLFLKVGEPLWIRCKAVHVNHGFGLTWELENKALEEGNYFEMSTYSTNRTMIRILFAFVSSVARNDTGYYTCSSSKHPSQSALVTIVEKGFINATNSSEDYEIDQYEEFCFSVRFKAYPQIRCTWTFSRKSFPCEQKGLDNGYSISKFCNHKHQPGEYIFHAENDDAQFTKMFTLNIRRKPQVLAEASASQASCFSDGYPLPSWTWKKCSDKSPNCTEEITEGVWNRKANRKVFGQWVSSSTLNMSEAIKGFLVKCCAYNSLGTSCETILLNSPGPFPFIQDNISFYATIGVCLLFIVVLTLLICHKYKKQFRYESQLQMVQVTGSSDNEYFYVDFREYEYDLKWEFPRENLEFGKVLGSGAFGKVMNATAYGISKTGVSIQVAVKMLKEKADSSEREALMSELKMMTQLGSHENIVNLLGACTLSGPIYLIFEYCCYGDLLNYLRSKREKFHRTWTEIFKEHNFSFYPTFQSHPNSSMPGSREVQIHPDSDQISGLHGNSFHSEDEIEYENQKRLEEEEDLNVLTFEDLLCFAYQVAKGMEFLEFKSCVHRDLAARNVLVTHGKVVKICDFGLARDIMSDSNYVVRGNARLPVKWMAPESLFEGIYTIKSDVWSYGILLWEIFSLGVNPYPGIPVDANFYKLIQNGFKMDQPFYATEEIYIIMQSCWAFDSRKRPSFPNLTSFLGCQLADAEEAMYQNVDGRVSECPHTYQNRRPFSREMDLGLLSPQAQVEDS

As for `COc1ccc(COc2ccc(Nc3ccc4ncc(N(C)C)nc4c3C#N)cc2OC)cc1` [Example 7, 3-(dimethylamino)-6-((3-methoxy-4-((4-methoxybenzyl)oxy)phenyl)amino)quinoxaline-5-carbonitrile], the IC50 was less than 0.3 µM in test [1]; less than 0.1 µM in test [2] (class symbol); more than 10 µM in test [3]; less than 0.1 µM in test [4] (class symbol); less than 0.3 µM in test [5]; more than 1 µM in test [6] (bound). In addition, the IC50 is more than 10 µM in test [8] and more than 1 µM in [9] (bound). Further, the inhibition at 1 µM in [7] was more than 50%.

As to `CNc1cnc2ccc(Nc3ccc(OCc4ccc(OC)cc4)c(OC)c3)c(C#N)c2n1` [Example 12, 6-((3-methoxy-4-((4-methoxybenzyl)oxy)phenyl)amino)-3-(methylamino)quinoxaline-5-carbonitrile], the IC50 in test [1] is less than 0.3 µM; in test [2] (class symbol), less than 0.1 µM; in [3], more than 10 µM; in [4] (class symbol) it was less than 0.1 µM; in test [5], 0.3 to 1 µM; in test [6] (bound) it was more than 1 µM. For the same compound, the IC50 in test [8] is more than 10 µM; in test [9] (bound), more than 1 µM. Besides, in test [7], the inhibition at 1 µM was more than 50%.

For `COc1ccc(COc2ccc(Nc3ccc4ncc(N5CCOCC5)nc4c3C#N)cc2OC)cc1` [Example 16, 6-((3-methoxy-4-((4-methoxybenzyl)oxy)phenyl)amino)-3-morpholinoquinoxaline-5-carbonitrile], the IC50 in test [1] was less than 0.3 µM; in test [2] (class symbol), less than 0.1 µM; in test [3], more than 10 µM; in test [4] (class symbol) it was less than 0.1 µM; in test [5], less than 0.3 µM; in test [6] (bound), more than 1 µM. The IC50 is more than 10 µM in [8] and more than 1 µM in [9] (bound). Moreover, in [7], the inhibition at 1 µM was more than 50%.

Take `COc1ccc(COc2ccc(Nc3ccc4ncc(NC(C)C)nc4c3C#N)cc2OC)cc1` [Example 17, 3-(isopropylamino)-6-((3-methoxy-4-((4-methoxybenzyl)oxy)phenyl)amino)quinoxaline-5-carbonitrile]: the IC50 in test [1] is less than 0.3 µM; in [2] (class symbol), less than 0.1 µM; in test [3] it was 1 to 10 µM; in test [4] (class symbol), less than 0.1 µM; in test [5], 0.3 to 1 µM; in [6] (bound), more than 1 µM. The IC50 in test [8] is more than 10 µM; in test [9] (bound), more than 1 µM. In test [7], the inhibition at 1 µM was more than 50%.

On to `COc1ccc(COc2ccc(Nc3ccc4ncc(N5CCOCC5)nc4c3)cc2OC)cc1` [Example 24, N-(3-methoxy-4-((4-methoxybenzyl)oxy)phenyl)-3-morpholinoquinoxalin-6-amine], for which the IC50 in test [1] is less than 0.3 µM; in test [2] (class symbol), less than 0.1 µM; in test [3], 1 to 10 µM; in test [4] (class symbol), less than 0.1 µM; in [5] it was less than 0.3 µM; in [6] (bound) it was more than 1 µM. Besides, the figures for the IC50 in [8] and in test [9] (bound) were more than 10 µM and more than 1 µM, respectively. Moreover, in test [7], the inhibition at 1 µM is more than 50%.

`CNc1cnc2ccc(Nc3ccc(OCc4ccc(OC)cc4)c(OC)c3)cc2n1` [Example 25, N^7-(3-methoxy-4-((4-methoxybenzyl)oxy)phenyl)-N^2-methylquinoxaline-2,7-diamine]: the IC50 in test [1] is less than 0.3 µM; in test [2] (class symbol), less than 0.1 µM; in test [3], 1 to 10 µM; in [4] (class symbol) it was less than 0.1 µM; in [5], 0.3 to 1 µM; in test [6] (bound), more than 1 µM. Further, the half-maximal inhibitory concentration (IC50) was 1 to 10 µM in test [8] and more than 1 µM in test [9] (bound). In test [7], the inhibition at 1 µM was more than 50%.

On to `COc1ccc(COc2ccc(Oc3ccc4ncc(N5CCOCC5)nc4c3C#N)cc2OC)cc1` [Example 27, 6-(3-methoxy-4-((4-methoxybenzyl)oxy)phenoxy)-3-morpholinoquinoxaline-5-carbonitrile], for which the IC50 in test [1] is less than 0.3 µM; in test [2] (class symbol) it was less than 0.1 µM; in [3] it was more than 10 µM; in test [4] (class symbol), 0.1 to 0.3 µM; in test [5], less than 0.3 µM; in [6] (bound), more than 1 µM. Further, the IC50 in test [8] was more than 10 µM; in test [9] (bound), more than 1 µM. Besides, the inhibition at 1 µM in [7] is more than 50%.

As to `COc1ccc(COc2ccc(Nc3ccc4ncc(N5CCN(C)CC5)nc4c3C#N)cc2OC)cc1` [Example 31, 6-((3-methoxy-4-((4-methoxybenzyl)oxy)phenyl)amino)-3-(4-methylpiperazin-1-yl)quinoxaline-5-carbonitrile], the 50% inhibitory concentration (IC50) was less than 0.3 µM in [1]; less than 0.1 µM in test [2] (class symbol); 1 to 10 µM in [3]; less than 0.1 µM in test [4] (class symbol); less than 0.3 µM in [5]; more than 1 µM in [6] (bound). The IC50 in [8] was more than 10 µM; in [9] (class symbol), 0.3 to 1 µM. Further, the inhibition at 1 µM in test [7] is more than 50%.

Consider `COc1ccc(COc2ccc(Nc3ccc4ncc(OC(C)C)nc4c3C#N)cc2OC)cn1` [Example 119, 3-isopropoxy-6-((3-methoxy-4-((6-methoxypyridin-3-yl)methoxy)phenyl)amino)quinoxaline-5-carbonitrile], for which the IC50 in test [1] was 1 to 10 µM; in test [2] (class symbol), 0.1 to 0.3 µM; in test [3] it was 1 to 10 µM; in [4] (bound), more than 1 µM; in test [5], more than 10 µM; in [6] (class symbol), 0.1 to 0.3 µM. Also, the IC50 was more than 10 µM in test [8] and more than 1 µM in [9] (bound).

Take `COc1cc(Nc2ccc3ncc(N4CCOCC4)nc3c2C#N)ccc1OCc1ccoc1` [Example 121, 6-((4-(furan-3-ylmethoxy)-3-methoxyphenyl)amino)-3-morpholinoquinoxaline-5-carbonitrile]: the IC50 is 1 to 10 µM in test [1]; 0.1 to 0.3 µM in test [2] (class symbol); 1 to 10 µM in [3]; 0.1 to 0.3 µM in test [4] (class symbol); 0.3 to 1 µM in [5]; more than 1 µM in test [6] (bound). Also, the IC50 is more than 10 µM in [8] and more than 1 µM in test [9] (bound).

As for `COc1cc(Nc2ccc3ncc(N4CCOCC4)nc3c2C#N)ccc1OCc1ccco1` [Example 122, 6-((4-(furan-2-ylmethoxy)-3-methoxyphenyl)amino)-3-morpholinoquinoxaline-5-carbonitrile], the half-maximal inhibitory concentration (IC50) in test [1] is 1 to 10 µM; in [2] (class symbol), 0.1 to 0.3 µM; in [3], 1 to 10 µM; in test [4] (class symbol), less than 0.1 µM; in [5] it was 0.3 to 1 µM; in [6] (bound) it was more than 1 µM. Besides, the values for the IC50 in test [8] and in test [9] (bound) were more than 10 µM and more than 1 µM, respectively.

In the case of `COc1cc(Nc2ccc3ncc(N4CCOCC4)nc3c2C#N)ccc1OCC1CCCO1` (centres unmarked) [Example 123, 6-((3-methoxy-4-((tetrahydrofuran-2-yl)methoxy)phenyl)amino)-3-morpholinoquinoxaline-5-carbonitrile], the IC50 was more than 10 µM in [1]; more than 1 µM in [2] (bound); 1 to 10 µM in [3]; 0.3 to 1 µM in test [4] (class symbol); 1 to 10 µM in [5]; more than 1 µM in [6] (bound). Moreover, the IC50 in test [8] was more than 10 µM; in [9] (bound), more than 1 µM.
